Source: patent publication US20080269251A1, “Substituted Pyrazinone Derivatives as Alpha2C-Adrenoreceptor Antagonists” (priority 2005, published 2008)

Columns and labels:
5HT-transporter = biological target: T1, 5HT-transporter (Homo sapiens, UniProt P31645); experiment: Binding experiment for the 5HT-transporter ([3H]paroxetine, human platelet membranes); details: [3H]paroxetine 0.5 nM, 60 min at 25° C.; for IC50: read-out: h-5HTT pIC50 (converted)
T1 construct: Human platelet membranes (Oceanix Biosciences Corporation, Hanover, Md., USA) were thawed; tissue Oceanix Biosciences Corporation, Hanover, Md., USA; host or cells: human platelet membranes
T1 sequence (P31645 whole entry): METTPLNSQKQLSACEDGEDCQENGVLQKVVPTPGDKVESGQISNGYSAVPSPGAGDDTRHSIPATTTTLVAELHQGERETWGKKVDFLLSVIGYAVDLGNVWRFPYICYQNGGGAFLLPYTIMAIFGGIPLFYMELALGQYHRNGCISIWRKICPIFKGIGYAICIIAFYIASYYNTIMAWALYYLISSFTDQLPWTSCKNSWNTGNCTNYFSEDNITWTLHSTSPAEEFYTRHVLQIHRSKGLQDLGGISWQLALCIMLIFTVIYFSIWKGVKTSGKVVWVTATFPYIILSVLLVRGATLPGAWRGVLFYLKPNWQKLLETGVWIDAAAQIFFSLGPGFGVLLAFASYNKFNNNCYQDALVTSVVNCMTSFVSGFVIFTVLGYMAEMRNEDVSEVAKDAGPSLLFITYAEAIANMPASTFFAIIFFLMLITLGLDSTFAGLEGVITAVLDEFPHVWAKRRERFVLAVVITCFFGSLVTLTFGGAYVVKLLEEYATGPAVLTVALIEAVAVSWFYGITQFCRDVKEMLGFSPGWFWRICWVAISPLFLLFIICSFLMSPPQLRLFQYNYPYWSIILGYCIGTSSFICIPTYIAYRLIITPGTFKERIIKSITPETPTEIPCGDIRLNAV
Method: (§1) The interaction of the compounds of Formula (I) with α2C-adrenoceptor receptors was assessed in in vitro radioligand binding experiments. In general, a low concentration of a radioligand with a high binding affinity for a particular receptor or transporter is incubated with a sample of a tissue preparation enriched in a particular receptor or transporter or with a preparation of cells expressing cloned human receptors in a buffered medium. During the incubation, the radioligand binds to the receptor or transporter. When equilibrium of binding is reached, the receptor bound radioactivity is separated from the non-bound radioactivity, and the receptor- or transporter-bound activity is counted. The interaction of the test compounds with the receptor is assessed in competition binding experiments. Various concentrations of the test compound are added to the incubation mixture containing the receptor- or transporter preparation and the radioligand. The test compound in proportion to its binding affinity and its concentration inhibits binding of the radioligand. The radioligand used for […] receptor binding was [^3H]-raulwolscine.
Human platelet membranes (Oceanix Biosciences Corporation, Hanover, Md., USA) were thawed, diluted in buffer (Tris-HCl 50 mM, 120 mM NaCl and 5 mM KCl) and quickly (max 3 s) homogenised with an Ultraturrax homogenizer. […] Incubation was stopped by rapid filtration of the incubation mixture over GF/B filters, pre-wetted with 0.1% polyethyleneamine, using a Filtermate196 harvester (Packard, Meriden, Conn.). Filters were rinsed extensively with ice-cold buffer and radioactivity on the filters was counted in a Topcount liquid scintillation counter (Packard, Meriden, Conn.). Data were expressed as cpm. Imipramine (at 1 μM final concentration) was used to determine the non-specific binding.
(§2) Data from assays in the presence of compound were calculated as a percentage of total binding measured in the absence of test compound. Inhibition curves, plotting percent of total binding versus the log value of the concentration of the test compound, were automatically generated, and sigmoidal inhibition curves were fitted using non-linear regression. The pIC50 values of test compounds were derived from individual curves.

[1] = biological target: T2, human adrenergic-α2C receptor (Homo sapiens, UniProt P18825); experiment: Radioligand binding experiment for hα2C-adrenoceptor ([3H]raulwolscine); details: [3H]raulwolscine 1 nM, 60 minutes at 25° C.; for IC50: read-out: h-α2C pIC50 (converted)
T2 construct: expressed in transfected cells; host or cells: CHO cells, stably transfected; membrane preparation
T2 sequence (P18825 1-462): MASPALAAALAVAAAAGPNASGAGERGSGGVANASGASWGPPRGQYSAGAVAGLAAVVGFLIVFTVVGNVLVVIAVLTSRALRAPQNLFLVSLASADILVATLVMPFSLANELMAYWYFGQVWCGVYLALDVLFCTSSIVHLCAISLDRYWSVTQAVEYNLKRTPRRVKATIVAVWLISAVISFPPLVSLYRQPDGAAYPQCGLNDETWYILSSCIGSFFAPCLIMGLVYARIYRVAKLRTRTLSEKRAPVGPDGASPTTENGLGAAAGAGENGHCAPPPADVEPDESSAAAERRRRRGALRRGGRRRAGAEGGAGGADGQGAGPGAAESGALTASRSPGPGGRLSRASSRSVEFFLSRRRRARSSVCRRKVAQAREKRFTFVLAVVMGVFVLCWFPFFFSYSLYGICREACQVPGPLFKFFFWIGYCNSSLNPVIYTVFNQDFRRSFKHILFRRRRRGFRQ
Method: as §1
(§3) CHO cells, stabile transfected with human adrenergic-α2A, -α2B or α2C receptor cDNA, were cultured in Dulbecco's Modified Eagle's Medium (DMEM)/Nutrient mixture Ham's F12 (ratio 1:1)(Gibco, Gent-Belgium) supplemented with 10% heat inactivated fetal calf serum (Life Technologies, Merelbeke-Belgium) and antibiotics (100 IU/ml penicillin G, 100 μg/ml streptomycin sulphate, 110 μg/ml pyruvic acid and 100 μg/ml L-glutamine). One day before collection, cells were induced with 5 mM sodiumbutyrate. Upon 80-90% of confluence, cells were scraped in phosphate buffered saline without Ca^2+ and Mg^2+ and collected by centrifugation at 1500×g for 10 minutes. The cells were homogenised in Tris-HCl 50 mM using an Ultraturrax homogenizer and centrifuged for 10 minutes at 23,500×g. The pellet was washed once by resuspension and rehomogenization and the final pellet was resuspended in Tris-HCl, divided in 1 ml aliquots and stored at −70° C.
(§4) Membranes were thawed and re-homogenized in incubation buffer (glycylglycine 25 mM, pH 8.0). In a total volume of 500 μl, 2-10 μg protein was incubated with [^3H]raulwolscine (NET-722) (New England Nuclear, USA) (1 nM final concentration) with or without competitor for 60 minutes at 25° C. followed by rapid filtration over GF/B filter using a Filtermate196 harvester (Packard, Meriden, Conn.). Filters were rinsed extensively with ice-cold rinsing buffer (Tris-HCl 50 mM pH 7.4). Filter-bound radioactivity was determined by scintillation counting in a Topcount (Packard, Meriden, Conn.) and results were expressed as counts per minute (cpm). Non-specific binding was determined in the presence of 1 μM oxymetazoline for hα2A- and hα2B receptors and 1 μM spiroxatrine for hα2C receptors.
as §2

[2] = biological target: T3, human adrenergic-α2A receptor (Homo sapiens, UniProt P08913); experiment: Radioligand binding experiment for hα2A-adrenergic receptor ([3H]raulwolscine); details: [3H]raulwolscine 1 nM, 60 minutes at 25° C.; for IC50: read-out: h-α2A pIC50 (converted)
T3 construct: expressed in transfected cells; host or cells: CHO cells, stably transfected; membrane preparation
T3 sequence (P08913 1-465): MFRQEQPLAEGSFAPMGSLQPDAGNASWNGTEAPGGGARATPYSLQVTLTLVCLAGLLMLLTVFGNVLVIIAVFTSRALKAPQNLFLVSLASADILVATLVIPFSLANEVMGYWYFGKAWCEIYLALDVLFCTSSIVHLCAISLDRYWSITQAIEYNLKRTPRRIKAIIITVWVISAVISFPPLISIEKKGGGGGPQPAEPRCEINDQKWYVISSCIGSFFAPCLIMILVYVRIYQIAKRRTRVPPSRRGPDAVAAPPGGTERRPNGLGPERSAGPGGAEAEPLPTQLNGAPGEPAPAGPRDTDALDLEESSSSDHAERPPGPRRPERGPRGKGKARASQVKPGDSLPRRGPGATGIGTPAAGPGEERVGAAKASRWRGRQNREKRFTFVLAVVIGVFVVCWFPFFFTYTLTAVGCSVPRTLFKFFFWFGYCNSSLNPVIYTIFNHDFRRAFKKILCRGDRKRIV
Method: as §1, §3, §4, §2

Structure (SMILES) | IC50 (5HT-transporter) [µM] | IC50 [1] [µM] | IC50 [2] [µM] | h-5HTT pIC50 (5HT-transporter) | h-α2C pIC50 [1] | h-α2A pIC50 [2]
O=C(Cn1ccnc(NC2CCN(Cc3ccc4ccccc4c3)CC2)c1=O)Nc1ccc(F)cc1 [1-65] | 0.158 | 0.0398 | 0.158 | – | – | –
O=C(Cn1ccnc(NC2CCN(Cc3ccc4ccccc4c3)CC2)c1=O)NCc1ccc(F)cc1 [1-66] | 0.0631 | 0.0126 | 0.316 | – | – | –
O=c1c(NC2CCN(Cc3ccc4ccccc4c3)CC2)nccn1CCCNCc1ccccc1 [1-67] | 0.158 | 0.0251 | 0.631 | – | – | –
O=C(Cn1ccnc(NC2CCN(Cc3ccc4ccccc4c3)CC2)c1=O)NCc1ccccc1 [1-68] | 0.158 | 0.02 | 0.2 | – | – | –
CN(Cc1ccccc1)C(=O)Cn1ccnc(NC2CCN(Cc3ccc4ccccc4c3)CC2)c1=O [1-69] | 0.0501 | 0.02 | 0.2 | – | – | –
CN(Cc1ccccc1)Cc1ccc(-n2ccnc(NC3CCN(Cc4ccc5ccccc5c4)CC3)c2=O)cc1 [1-70] | – | – | – | 8.0 | 7.5 | 6.5
O=C(Cn1ccnc(NC2CCN(Cc3ccc4ccccc4c3)CC2)c1=O)NCCc1ccccc1 [1-71] | 0.126 | 0.02 | 0.316 | – | – | –
O=C(Cn1ccnc(NC2CCN(Cc3ccc4ccccc4c3)CC2)c1=O)NCCCc1ccccc1 [1-72] | 0.0631 | 0.0316 | 0.2 | – | – | –
CC(C)(Cc1ccccc1)NC(=O)Cn1ccnc(NC2CCN(Cc3ccc4ccccc4c3)CC2)c1=O [1-73] | 0.158 | 0.0398 | 0.398 | – | – | –
O=C(NCCCn1ccnc(NC2CCN(Cc3ccc4ccccc4c3)CC2)c1=O)c1ccccc1 [1-74] | 0.126 | 0.0316 | 0.794 | – | – | –
O=C(Nc1cccc(-n2ccnc(NC3CCN(Cc4ccc5ccccc5c4)CC3)c2=O)c1)c1ccc(F)cc1 [1-75] | 0.00398 | 0.0631 | 0.1 | – | – | –
O=C(NCc1ccc(-n2ccnc(NC3CCN(Cc4ccc5ccccc5c4)CC3)c2=O)cc1)c1ccc(F)cc1 [1-76] | – | – | – | 8.2 | 8.1 | 6.2
O=c1c(NC2CCN(Cc3ccc4ccccc4c3)CC2)nccn1CCCNCCOc1ccccc1 [1-77] | 0.0631 | 0.0251 | 0.398 | – | – | –

The remaining lines, values ahead:

IC50 (5HT-transporter) [µM] | IC50 [1] [µM] | IC50 [2] [µM] | h-5HTT pIC50 (5HT-transporter) | h-α2C pIC50 [1] | h-α2A pIC50 [2] | Structure (SMILES)
0.00316 | 0.00251 | 0.251 | – | – | – | O=c1c(NC2CCN(Cc3ccc4ccccc4c3)CC2)nccn1-c1ccc(CNCC2CCCO2)c(F)c1 (stereo not drawn) [1-80]
0.631 | 0.0316 | 0.158 | – | – | – | O=C(Cn1ccnc(NC2CCN(Cc3ccc4ccccc4c3)CC2)c1=O)NCc1ccco1 [1-81]
0.00501 | 0.0126 | 0.158 | – | – | – | O=c1c(NC2CCN(Cc3ccc4ccccc4c3)CC2)nccn1-c1ccc(CNCc2ccco2)cc1 [1-82]
– | – | – | 8.3 | 7.6 | 6.7 | Cc1ccc(CNCc2ccc(-n3ccnc(NC4CCN(Cc5ccc6ccccc6c5)CC4)c3=O)cc2)o1.Cl.Cl [1-83]
0.00316 | 0.01 | 0.2 | – | – | – | Cc1ccc(CNCc2ccc(-n3ccnc(NC4CCN(Cc5ccc6ccccc6c5)CC4)c3=O)cc2F)o1 [1-84]
0.0316 | 0.0794 | 0.794 | – | – | – | Cc1ccc(CN(Cc2ccc(-n3ccnc(NC4CCN(Cc5ccc6ccccc6c5)CC4)c3=O)cc2)Cc2ccc(C)o2)o1 [1-85]
0.0251 | 0.0251 | 0.251 | – | – | – | Cc1cc(CNC(=O)c2ccc(-n3ccnc(NC4CCN(Cc5ccc6ccccc6c5)CC4)c3=O)cc2)no1 [1-86]
0.0126 | 0.0126 | 0.251 | – | – | – | Cc1cc(CNCc2ccc(-n3ccnc(NC4CCN(Cc5ccc6ccccc6c5)CC4)c3=O)cc2F)no1 [1-87]
0.0158 | 0.0126 | 0.2 | – | – | – | O=c1c(NC2CCN(Cc3ccc4ccccc4c3)CC2)nccn1-c1ccc(NCCN2CCC(F)CC2)cc1 [1-89]
0.00794 | 0.0126 | 0.251 | – | – | – | O=c1c(NC2CCN(Cc3ccc4ccccc4c3)CC2)nccn1-c1ccc(CNCc2ccccn2)cc1 [1-90]
0.0158 | 0.02 | 0.316 | – | – | – | O=c1c(NC2CCN(Cc3ccc4ccccc4c3)CC2)nccn1-c1ccc(CNCCN2CCOCC2)cc1 [1-93]
2 | 0.0501 | 0.631 | – | – | – | O=C(Cn1ccnc(NC2CCN(Cc3ccc4ccccc4c3)CC2)c1=O)NCCN1CCOCC1 [1-94]
0.00631 | 0.02 | 0.398 | – | – | – | O=C(Cc1ccsc1)NCc1ccc(-n2ccnc(NC3CCN(Cc4ccc5ccccc5c4)CC3)c2=O)cc1 [1-95]
– | – | – | 8.0 | 8.3 | 7.1 | Cl.O=C(CCN1CCC(F)CC1)NCc1ccc(-n2ccnc(NC3CCN(Cc4ccc5ccccc5c4)CC3)c2=O)cc1F [1-96]
0.0126 | 0.00398 | 0.501 | – | – | – | O=C(NCc1ccc(-n2ccnc(NC3CCN(Cc4ccc5ccccc5c4)CC3)c2=O)cc1)c1ccno1 [1-100]
0.00631 | 0.0251 | 0.501 | – | – | – | O=C(NCc1ccc(-n2ccnc(NC3CCN(Cc4ccc5ccccc5c4)CC3)c2=O)cc1)c1ccncc1 [1-101]
0.158 | 0.0316 | 0.631 | – | – | – | O=C(CNCCCn1ccnc(NC2CCN(Cc3ccc4ccccc4c3)CC2)c1=O)c1coc2ccccc12 [1-103]
0.126 | 0.02 | 0.2 | – | – | – | O=C(Cn1ccnc(NC2CCN(Cc3ccc4ccccc4c3)CC2)c1=O)N(Cc1ccccc1)c1ccccc1 [1-104]
0.02 | 0.0316 | 0.251 | – | – | – | O=C1CCCN1Cc1ccc(-n2ccnc(NC3CCN(Cc4ccc5ccccc5c4)CC3)c2=O)cc1 [2-01]
